pIC50: −log10 of the molar value.
Tested on: GST-BIR3 fusion protein
Experiment: FMAT solution phase assay: competition of GST-BIR3 off beads carrying biotinylated Smac 7-mer peptide
Type: binding
Conditions: competing GST-BIR3 off beads with immobilized biotinylated Smac 7-mer peptide (AVPIAQK)
Procedure: In order to measure the ability of the inventive compounds to bind the BIR3 peptide binding pocket, a solution phase assay on the FMAT technology platform is utilized. Biotinylated Smac 7-mer peptide (AVPIAQK, lysine ε-amino group is biotinylated) is immobilized on streptavidin coated beads. GST-BIR3 fusion protein is precipitated with FMAT beads and is detected using fluorescent tagged anti-GST antibodies. […] The IC50 for non-biotinylated Smac is 400 nM.

- pIC50: 6.40
Substance: non-biotinylated Smac: Non-biotinylated Smac peptide; the biotinylated bead-bound form is the Smac 7-mer AVPIAQK
